Assay results as given in PubChem BioAssay AID2060338 (Molecular Pharmacology Branch, DTP, NCI, 2025).
Where “and” joins values, the source holds several entries; their conditions need not be identical. Identical values can stand only once.

System: 556581-035-R-J1-PDC spheroids with HUVEC/MSC, viability
Assay: Anticancer human tumor 556581-035-R-J1-PDC patient-derived ovarian carcinoma cell line growth inhibition [IpAb]
Conditions: for viability, T/C: stronger effect = lower value
From the text: Combinatorial screen of targeted agents with ipatasertib and abemaciclib in multi-cell type tumor spheroids
A high-throughput screen of multi-cell type tumor spheroids was designed to identify active combinations of targeted small molecules and ipatasertib or abemaciclib. Complex spheroids include a stromal component modeled by human endothelial cells (HUVEC) and fibroblasts modeled by human mesenchymal stem cells (MSCs). The concentration ranges selected for each drug and investigational agent were based upon clinically achievable concentrations if the clinical Cmax of the agent was known.
Compounds. The drugs and investigational agents: ipatasertib (NSC767898), abemaciclib(NSC768073), selumetinib (NSC741078), trametinib (758246), adavosertib (NSC754352), everolimus (NSC733504), sapanisertib (NSC764658), vemurafenib (NSC761431), venetoclax (NSC766270), copanlisib (NSC809693), apelisib (NSC765974), palbociblib (NSC758247), vemurafenib (NSC761431), dabrafenib (NSC764134), ravoxertinib (NSC781343), BMS-387032 (NSC767048), sotorasib (NSC818433), talazoparib (NSC767125) and afursertib (NSC778305), were obtained from the National Cancer Institute (NCI) Developmental Therapeutics Program Chemical Repository. The FDA-approved anticancer drug set is available from the NCI Developmental Therapeutics Program. […] The stock solutions were prepared in dimethyl sulfoxide (DMSO, Sigma-Aldrich, St. Louis, MO, cat. D2650) at 800-fold the tested concentration and stored at -70 degrees C prior to their use. All drugs and investigational agents were tested over a range starting from a high concentration at or near the clinical Cmax and decreasing in half-log increments. If the clinical Cmax for an agent had not been determined, the highest concentration tested was 10 microM.
NCI60 Cell Culture. NCI60 cell lines were obtained from the NCI Developmental Therapeutics Program Tumor Repository. For each lot of cells, the Repository performed Applied Biosystems AmpFLSTR Identifiler testing with PCR amplification to confirm consistency with the published Identifier STR profile for each cell line. Cells were kept in continuous culture for no more than 20 passages. The optimal seeding densities for each of the cell lines at each time point assessed were determined prior to performing the concentration response studies. Briefly, the NCI60 human tumor lines were grown as monolayers in RPMI 1640 medium supplemented with 10% FBS and 2 mmol/L L-glutamine.
An additional 9 lines were from the NCI60 cell line panel including MDA-MB-231 breast carcinoma, MDA-MB-468 breast carcinoma, MCF7 breast carcinoma, Hs578T breast carcinoma, MALME-3M melanoma, SK-MEL-2 melanoma, SK-OV-3 ovarian carcinoma, DU-145 prostate carcinoma, PC-3 prostate carcinoma, all cell lines along with major genetic alterations are listed on Table 2. Pooled donor human umbilical vein endothelial cells (HUVEC, Lonza, cat. CC-2519) and human mesenchymal stem cells (hMSC, Lonza, cat. PT-2501) were purchased from Lonza (Walkersville, MD).
PDMR cell lines were grown in complete medium (DC medium): Dulbecco's modified Eagle's medium (DMEM)/F12 supplemented with 5% fetal bovine serum (FBS), 2 mM L-glutamine, 100 U/mL penicillin and 100 µg/ml streptomycin, 0.4 µg/ml hydrocortisone, 10 ng/ml epidermal growth factor (EGF) recombinant human protein, 24 µg/mL adenine, and 0.1 mg/mL primocin. During culture from frozen stock vials, PDMR cells were cultured in the same medium containing 10 µM Y-27632 (see Table 3). The PDCs were cultured in complete DMEM/F12 media without 10 microM Y-27632 dihydrochloride for at least two passages prior to the screen. The pooled donor HUVEC and hMSC were cultured in endothelial cell growth medium 2 (PromoCell, Heidelberg, Germany, cat. C-22011) and mesenchymal stem cell growth medium 2 (PromoCell, cat. C-28009), respectively. For all experiments, HUVEC and hMSC were used at passages </=5.
[…]

[1] = curve of first compound, second compound 0.01 µM
[2] = curve of first compound, second compound 0.0316 µM
[3] = curve of first compound, second compound 0.1 µM
[4] = curve of first compound, second compound 0.316 µM
[5] = curve of first compound, second compound 1 µM
[6] = second compound 0.01 µM, first compound 0.00949 µM
[7] = second compound 0.01 µM, first compound 0.03 µM
[8] = second compound 0.01 µM, first compound 0.0949 µM
[9] = second compound 0.01 µM, first compound 0.3 µM
[10] = second compound 0.01 µM, first compound 0.949 µM
[11] = second compound 0.01 µM, first compound 3 µM
[12] = second compound 0.0316 µM, first compound 0.00949 µM
[13] = second compound 0.0316 µM, first compound 0.03 µM
[14] = second compound 0.0316 µM, first compound 0.0949 µM
[15] = second compound 0.0316 µM, first compound 0.3 µM
[16] = second compound 0.0316 µM, first compound 0.949 µM
[17] = second compound 0.0316 µM, first compound 3 µM
[18] = second compound 0.1 µM, first compound 0.00949 µM
[19] = second compound 0.1 µM, first compound 0.03 µM
[20] = second compound 0.1 µM, first compound 0.0949 µM
[21] = second compound 0.1 µM, first compound 0.3 µM
[22] = second compound 0.1 µM, first compound 0.949 µM
[23] = second compound 0.1 µM, first compound 3 µM
[24] = second compound 0.316 µM, first compound 0.00949 µM
[25] = second compound 0.316 µM, first compound 0.03 µM
[26] = second compound 0.316 µM, first compound 0.0949 µM
[27] = second compound 0.316 µM, first compound 0.3 µM
[28] = second compound 0.316 µM, first compound 0.949 µM
[29] = second compound 0.316 µM, first compound 3 µM
[30] = second compound 1 µM, first compound 0.00949 µM
[31] = second compound 1 µM, first compound 0.03 µM
[32] = second compound 1 µM, first compound 0.0949 µM
[33] = second compound 1 µM, first compound 0.3 µM
[34] = second compound 1 µM, first compound 0.949 µM
[35] = second compound 1 µM, first compound 3 µM
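Further: spheroids exposed to compounds for 7 days before readout.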

CC(C)(C)c1cnc(CSc2cnc(NC(=O)C3CCNCC3)s2)o1 + CCN1CCN(Cc2ccc(Nc3ncc(F)c(-c4cc(F)c5nc(C)n(C(C)C)c5c4)n3)nc2)CC1
IC50 [1]: 154 nM | IC50 [2]: 114 nM | IC50 [3]: 67.8 nM | IC50 [4]: 45.4 nM | IC50 [5]: 13.1 nM | viability, T/C [6]: 103% | viability, T/C [7]: 122% | viability, T/C [8]: 84.5% | viability, T/C [9]: 2.06% | viability, T/C [10]: 2.48% | viability, T/C [11]: 2.1% | viability, T/C [12]: 115% | viability, T/C [13]: 103% | viability, T/C [14]: 59.2% | viability, T/C [15]: 5.51% | viability, T/C [16]: 1.33% | viability, T/C [17]: 0.97% | viability, T/C [18]: 93.8% | viability, T/C [19]: 93.9% | viability, T/C [20]: 31.8% | viability, T/C [21]: 1.38% | viability, T/C [22]: 3.13% | viability, T/C [23]: 1.36% | viability, T/C [24]: 83.5% | viability, T/C [25]: 73.7% | viability, T/C [26]: 7.97% | viability, T/C [27]: 1.31% | viability, T/C [28]: 2.8% | viability, T/C [29]: 3.38% | viability, T/C [30]: 55.7% | viability, T/C [31]: 35.4% | viability, T/C [32]: 3.81% | viability, T/C [33]: 1.87% | viability, T/C [34]: 0.65% | viability, T/C [35]: 1.32%

C=CC(=O)N1CCN(c2nc(=O)n(-c3c(C)ccnc3C(C)C)c3nc(-c4c(O)cccc4F)c(F)cc23)C(C)C1 (centres undefined)
viability, T/C (compound 0.0316 µM): 107% and 97.3% | viability, T/C (compound 0.1 µM): 97.5% and 113% | viability, T/C (compound 0.316 µM): 113% and 118% | viability, T/C (compound 1 µM): 106% and 105% | viability, T/C (compound 3.16 µM): 102% and 126% | viability, T/C (compound 10 µM): 31.9% and 31.5% | IC50 (curve of compound): 7440 nM and 7680 nM

Cn1cnc2c(F)c(Nc3ccc(Br)cc3Cl)c(C(=O)NOCCO)cc21 + CCN1CCN(Cc2ccc(Nc3ncc(F)c(-c4cc(F)c5nc(C)n(C(C)C)c5c4)n3)nc2)CC1
IC50 [1]: 876 nM | IC50 [2]: 1130 nM | IC50 [3]: 870 nM | IC50 [4]: 1170 nM | IC50 [5]: 1210 nM | viability, T/C [6]: 118% | viability, T/C [7]: 111% | viability, T/C [8]: 108% | viability, T/C [9]: 78.7% | viability, T/C [10]: 49% | viability, T/C [11]: 18.8% | viability, T/C [12]: 102% | viability, T/C [13]: 121% | viability, T/C [14]: 110% | viability, T/C [15]: 73.4% | viability, T/C [16]: 62.4% | viability, T/C [17]: 14.3% | viability, T/C [18]: 97.7% | viability, T/C [19]: 95.1% | viability, T/C [20]: 98.6% | viability, T/C [21]: 84% | viability, T/C [22]: 47.4% | viability, T/C [23]: 17.8% | viability, T/C [24]: 102% | viability, T/C [25]: 102% | viability, T/C [26]: 104% | viability, T/C [27]: 87.1% | viability, T/C [28]: 56.8% | viability, T/C [29]: 22.4% | viability, T/C [30]: 48% | viability, T/C [31]: 62% | viability, T/C [32]: 59% | viability, T/C [33]: 63.7% | viability, T/C [34]: 58.6% | viability, T/C [35]: 20.1%

Cn1nccc1Nc1nccc(-c2ccn(C(CO)c3ccc(Cl)c(F)c3)c(=O)c2)n1 (centres undefined)
viability, T/C (compound 0.0316 µM): 114% and 133% | viability, T/C (compound 0.1 µM): 117% and 135% | viability, T/C (compound 0.316 µM): 103% and 124% | viability, T/C (compound 1 µM): 86.2% and 104% | viability, T/C (compound 3.16 µM): 61.3% and 88.7% | viability, T/C (compound 10 µM): 17.8% and 38.4% | IC50 (curve of compound): 4160 nM and 7690 nM

Cn1ncnc1[C@H]1c2n[nH]c(=O)c3cc(F)cc(c23)N[C@@H]1c1ccc(F)cc1 + CC(C)NCC(C(=O)N1CCN(c2ncnc3c2C(C)CC3O)CC1)c1ccc(Cl)cc1
IC50 [3]: > 100 nM | IC50 [4]: 94.3 nM | IC50 [5]: > 100 nM | IC50 (curve of first compound, second compound 3.16 µM): > 100 nM | IC50 (curve of first compound, second compound 10 µM): < 0.316 nM | viability, T/C (second compound 0.1 µM, first compound 0.000316 µM): 106% | viability, T/C (second compound 0.1 µM, first compound 0.001 µM): 93% | viability, T/C (second compound 0.1 µM, first compound 0.00316 µM): 88% | viability, T/C (second compound 0.1 µM, first compound 0.01 µM): 86.1% | viability, T/C (second compound 0.1 µM, first compound 0.0316 µM): 82.6% | viability, T/C (second compound 0.1 µM, first compound 0.1 µM): 64.2% | viability, T/C (second compound 0.316 µM, first compound 0.000316 µM): 92.7% | viability, T/C (second compound 0.316 µM, first compound 0.001 µM): 87.5% | viability, T/C (second compound 0.316 µM, first compound 0.00316 µM): 78% | viability, T/C (second compound 0.316 µM, first compound 0.01 µM): 59.7% | viability, T/C (second compound 0.316 µM, first compound 0.0316 µM): 67.2% | viability, T/C (second compound 0.316 µM, first compound 0.1 µM): 46.8% | viability, T/C (second compound 1 µM, first compound 0.000316 µM): 70.6% | viability, T/C (second compound 1 µM, first compound 0.001 µM): 60% | viability, T/C (second compound 1 µM, first compound 0.00316 µM): 65.9% | viability, T/C (second compound 1 µM, first compound 0.01 µM): 52.2% | viability, T/C (second compound 1 µM, first compound 0.0316 µM): 65.4% | viability, T/C (second compound 1 µM, first compound 0.1 µM): 55.4% | viability, T/C (second compound 3.16 µM, first compound 0.000316 µM): 51.2% | viability, T/C (second compound 3.16 µM, first compound 0.001 µM): 54.1% | viability, T/C (second compound 3.16 µM, first compound 0.00316 µM): 51.5% | viability, T/C (second compound 3.16 µM, first compound 0.01 µM): 54.8% | viability, T/C (second compound 3.16 µM, first compound 0.0316 µM): 44.2% | viability, T/C (second compound 3.16 µM, first compound 0.1 µM): 54.8% | viability, T/C (second compound 10 µM, first compound 0.000316 µM): 48.6% | viability, T/C (second compound 10 µM, first compound 0.001 µM): 46.3% | viability, T/C (second compound 10 µM, first compound 0.00316 µM): 42.9% | viability, T/C (second compound 10 µM, first compound 0.01 µM): 35.6% | viability, T/C (second compound 10 µM, first compound 0.0316 µM): 44.2% | viability, T/C (second compound 10 µM, first compound 0.1 µM): 36.2%
